# Results as given in PubChem BioAssay (NCI).
#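 Tested at 5 concentrations; 48 h exposure; 96-well plates; endpoints linearly interpolated, else capped at highest concentration. The concentration for 50% growth inhibition is given as GI50. Definition used: TGI = concentration required for complete inhibition of growth.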
# Tests used:
# Assay in all cases: NCI-60 cell line screen, 48 h
# [1] = tested on: HCT-15 colon
# [2] = tested on: IGROV1 ovarian
# [3] = tested on: RXF 393 renal
# [4] = tested on: HCC-2998 colon
# [5] = tested on: HCT-116 colon
# [6] = tested on: HT29 colon
# [7] = tested on: RPMI-8226 leukemia
# [8] = tested on: MCF7 breast
# [9] = tested on: OVCAR-3 ovarian
# [10] = tested on: KM12 colon
# [11] = tested on: ACHN renal
# [12] = tested on: K-562 leukemia
# [13] = tested on: PC-3 prostate
# [14] = tested on: BT-549 breast
# [15] = tested on: SF-539 CNS
# [16] = tested on: SK-MEL-2 melanoma
# [17] = tested on: OVCAR-5 ovarian
# [18] = tested on: SK-OV-3 ovarian
# [19] = tested on: A498 renal
# [20] = tested on: SNB-75 CNS
# [21] = tested on: T-47D breast
# [22] = tested on: SW-620 colon
# [23] = tested on: CCRF-CEM leukemia
# [24] = tested on: M14 melanoma
# [25] = tested on: NCI-H23 lung
# [26] = tested on: SN12C renal
# [27] = tested on: CAKI-1 renal
# [28] = tested on: MOLT-4 leukemia
# [29] = tested on: MALME-3M melanoma
# [30] = tested on: COLO 205 colon
# [31] = tested on: UACC-62 melanoma
# [32] = tested on: A549 NSCLC
# [33] = tested on: SK-MEL-5 melanoma
# [34] = tested on: HL-60(TB) leukemia
# [35] = tested on: LOX IMVI melanoma
# [36] = tested on: UACC-257 melanoma
# [37] = tested on: UO-31 renal
# [38] = tested on: SNB-19 CNS
# [39] = tested on: SK-MEL-28 melanoma
# [40] = tested on: NCI-H522 lung
# [41] = tested on: NCI-H226 lung
# [42] = tested on: MDA-MB-435
# [43] = tested on: HOP-92 NSCLC
# [44] = tested on: EKVX NSCLC
# [45] = tested on: MDA-MB-231 breast
# [46] = tested on: SF-295 CNS
# [47] = tested on: DU-145 prostate
# [48] = tested on: HOP-62 NSCLC
# [49] = tested on: NCI-H460 lung
# [50] = tested on: SR leukemia
# [51] = tested on: 786-0 renal
# [52] = tested on: TK-10 renal
smiles,measurement,setting,value
CN1CCN(Cc2ccc(NC(=O)c3cncc(C#Cc4cnc5ccc(N6CCSCC6)nn45)c3)cc2C(F)(F)F)CC1,GI50,[1],172 nM
same,TGI,[1],564 nM
same,GI50,[2],168 nM
same,TGI,[2],806 nM
same,GI50,[3],141 nM
same,TGI,[3],295 nM
same,GI50,[4],245 nM
same,TGI,[4],878 nM
same,GI50,[5],112 nM
same,TGI,[5],1160 nM
same,GI50,[6],74.4 nM
same,TGI,[6],554 nM
same,GI50,[7],333 nM
same,TGI,[7],2070 nM
same,GI50,[8],45.9 nM
same,TGI,[8],598 nM
same,GI50,[9],322 nM
same,TGI,[9],1290 nM
same,TGI,[10],340 nM
same,GI50,[11],224 nM
same,TGI,[11],1200 nM
same,TGI,[12],753 nM
same,GI50,[13],327 nM
same,TGI,[13],1990 nM
same,GI50,[14],354 nM
same,TGI,[14],1240 nM
same,GI50,[15],93.6 nM
same,TGI,[15],275 nM
same,GI50,[16],260 nM
same,TGI,[16],745 nM
same,GI50,[17],282 nM
same,TGI,[17],1320 nM
same,GI50,[18],656 nM
same,TGI,[18],2060 nM
same,GI50,[19],307 nM
same,TGI,[19],537 nM
same,GI50,[20],256 nM
same,TGI,[20],832 nM
same,GI50,[21],1400 nM
same,TGI,[21],3.89 µM
same,GI50,[22],153 nM
same,TGI,[22],1090 nM
same,GI50,[23],303 nM
same,GI50,[24],156 nM
same,TGI,[24],760 nM
same,GI50,[25],156 nM
same,TGI,[25],595 nM
same,GI50,[26],112 nM
same,TGI,[26],702 nM
same,GI50,[27],221 nM
same,TGI,[27],787 nM
same,GI50,[28],198 nM
same,TGI,[28],666 nM
same,GI50,[29],202 nM
same,TGI,[29],1070 nM
same,GI50,[30],153 nM
same,TGI,[30],429 nM
same,GI50,[31],468 nM
same,TGI,[31],1930 nM
same,GI50,[32],272 nM
same,TGI,[32],1580 nM
same,GI50,[33],786 nM
same,TGI,[33],2080 nM
same,GI50,[34],78.2 nM
same,TGI,[34],520 nM
same,GI50,[35],152 nM
same,TGI,[35],535 nM
same,GI50,[36],599 nM
same,TGI,[36],2340 nM
same,GI50,[37],280 nM
same,TGI,[37],855 nM
same,GI50,[38],446 nM
same,TGI,[38],1350 nM
same,GI50,[39],498 nM
same,TGI,[39],1850 nM
same,GI50,[40],132 nM
same,TGI,[40],340 nM
same,GI50,[41],51.8 nM
same,TGI,[41],780 nM
same,GI50,[42],197 nM
same,TGI,[42],1480 nM
same,GI50,[43],41.8 nM
same,TGI,[43],240 nM
same,GI50,[44],100 nM
same,TGI,[44],877 nM
same,GI50,[45],74.2 nM
same,TGI,[45],572 nM
same,GI50,[46],310 nM
same,TGI,[46],1600 nM
same,GI50,[47],202 nM
same,TGI,[47],600 nM
same,GI50,[48],338 nM
same,TGI,[48],1450 nM
same,GI50,[49],208 nM
same,TGI,[49],532 nM
same,GI50,[50],208 nM
same,TGI,[50],712 nM
same,GI50,[51],189 nM
same,TGI,[51],762 nM
same,GI50,[52],319 nM
same,TGI,[52],1080 nM
